Experimental data reported in US20240216317A1, “COMPOSITION FOR PREVENTING, AMELIORATING OR TREATING INFLAMMATORY BOWEL DISEASE COMPRISING COMPOUND ISOLATED FROM ISODON EXCISUS AS EFFECTIVE COMPONENT” (HEALINNOLS INC., priority 2022, published 2024).

Tested on: claudin1
Test: Immunofluorescence microscopy of tight junction-related protein claudin1 in intestinal epithelial wall model (DSS-treated Caco-2)
Format: cell-based, human
Conditions: 3% DSS, 24 hours; Chemical formula 1 0.3, 1 or 3 μM; 5-ASA 500 μM; FIG. 4
Description: Caco-2 cell line (human intestinal epithelial cell line) and RAW 264.7 cell line, which is macrophage cells derived from mouse, were cultured at 37° C., 5% CO2 conditions by using DMEM (Dulbecco's Modified Eagle Medium, #11995065, Gibco) containing 10% FBS (fetal bovine serum, #16000044, Gibco) and 1% streptomycin/penicillin (#15140122, Gibco). For culturing the cells, the medium exchange was carried out every 2 to 3 days, and, once the cells are grown to the level of 80% in cell culture dish (#353003, Falcon), they were maintained by subculture.
The Caco-2 cells were adjusted to have density of 2×10^5 cells/ml. Suspension of the cells (0.5 ml) was aliquoted in apical side membrane phase of a transwell insert 12-well plate. To the basolateral side phase, 1.5 ml of culture medium were added. While replacing the medium with fresh one, once per 2 or 3 days, culture was continued for 21 days approximately, i.e., till to have cell division and suitable TEER (transepithelial electrical resistance) value of monolayer. […]
Thereafter, the cells were washed 3 times with 1×PBS for 5 minutes and treated for 5 minutes with Hoechst 33342 for staining the nucleus. […] After the mounting with ProLong™ Gold Antifade reagent, it was examined by confocal fluorescence microscopy.

SMILES	expression amount of claudin1 compared to DSS model group
COC(=O)C[C@H](OC(=O)/C=C/c1ccc(O)c(O)c1)c1ccc(O)c(O)c1 [Compound 1, 3-[3,4-dihydroxyphenyl]acrylic acid 1-[3,4-dihydroxyphenyl]-2-methoxycarbonylethyl ester]	statistically significantly higher
Nc1ccc(O)c(C(=O)O)c1 [Compound 5-ASA, 5-aminosalicylic acid, reference compound]	statistically significantly higher
